Laboratory results published in ChEMBL document CHEMBL5303573, “Mapping human microbiome drug metabolism by gut bacteria and their genes” (Nature, 2019).

Columns and labels:
[1] = The drug is tested on Clostridium spiroforme strain: DSM1552 for biotransformation. The drug concentrations were measured before and after a 12-h incubation by liquid-chromatography-coupled mass spectrometry (LC–MS); conditions: thomasclavelia spiroformis, 2 µM
Lipase = target: T1, Lipase (Bacteroides thetaiotaomicron, UniProt Q8A3J3); assay: The drug is tested on Bacteroides thetaiotaomicron strain: VPI-5482 for biotransformation. The drug concentrations were measured before and after a 12-h incubation by liquid-chromatography-coupled mass spectrometry (LC–MS); assay type: ADME; set-up: dose 2 uM; conditions: 2 µM
T1 sequence (Q8A3J3 whole entry): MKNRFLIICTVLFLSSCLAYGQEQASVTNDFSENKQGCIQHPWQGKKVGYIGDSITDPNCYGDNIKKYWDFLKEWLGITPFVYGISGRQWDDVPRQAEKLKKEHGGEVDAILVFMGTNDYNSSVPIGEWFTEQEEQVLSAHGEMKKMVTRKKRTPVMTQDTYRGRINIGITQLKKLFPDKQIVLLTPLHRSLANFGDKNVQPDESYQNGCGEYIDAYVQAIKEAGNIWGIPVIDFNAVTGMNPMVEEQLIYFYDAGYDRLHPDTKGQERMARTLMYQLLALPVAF

Diguanylate cyclase = target: T2, Diguanylate cyclase (Collinsella aerofaciens, UniProt A4EB91); assay: (§1) The drug is tested on Collinsella aerofaciens strain: ATCC25986 for biotransformation. The drug concentrations were measured before and after a 12-h incubation by liquid-chromatography-coupled mass spectrometry (LC–MS); assay type: ADME; set-up: dose 2 uM; conditions: 2 µM
T2 sequence (A4EB91 whole entry): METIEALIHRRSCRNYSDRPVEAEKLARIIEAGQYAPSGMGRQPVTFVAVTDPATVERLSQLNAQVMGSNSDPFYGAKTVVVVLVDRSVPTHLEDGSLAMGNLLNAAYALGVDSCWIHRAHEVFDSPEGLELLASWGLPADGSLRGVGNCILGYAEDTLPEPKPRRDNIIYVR

Flavodoxin = target: T3, Flavodoxin (Collinsella aerofaciens, UniProt A4ED08); assay: as §1; assay type: ADME; set-up: dose 2 uM; conditions: 2 µM
T3 sequence (A4ED08 whole entry): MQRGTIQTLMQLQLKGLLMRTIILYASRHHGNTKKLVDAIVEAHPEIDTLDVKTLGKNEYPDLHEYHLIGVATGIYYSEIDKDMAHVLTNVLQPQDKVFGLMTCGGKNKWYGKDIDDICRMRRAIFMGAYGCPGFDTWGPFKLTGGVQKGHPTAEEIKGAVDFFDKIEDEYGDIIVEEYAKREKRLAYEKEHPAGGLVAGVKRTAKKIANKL

GDSL-like protein = target: T4, GDSL-like protein (Collinsella aerofaciens, UniProt A4E7D0); assay: as §1; assay type: ADME; set-up: dose 2 uM; conditions: 2 µM
T4 sequence (A4E7D0 whole entry): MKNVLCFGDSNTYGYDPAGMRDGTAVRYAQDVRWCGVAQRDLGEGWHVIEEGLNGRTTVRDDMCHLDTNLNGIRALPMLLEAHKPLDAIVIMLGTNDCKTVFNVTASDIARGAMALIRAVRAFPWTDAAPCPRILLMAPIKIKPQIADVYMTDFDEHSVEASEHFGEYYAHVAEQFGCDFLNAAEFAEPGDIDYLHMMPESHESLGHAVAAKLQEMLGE

[2] = target: T5, Pyridine nucleotide-disulfide oxidoreductase (Collinsella aerofaciens, UniProt A4EBM5); assay: as §1; assay type: ADME; set-up: dose 2 uM; conditions: 2 µM
T5 sequence (A4EBM5 whole entry): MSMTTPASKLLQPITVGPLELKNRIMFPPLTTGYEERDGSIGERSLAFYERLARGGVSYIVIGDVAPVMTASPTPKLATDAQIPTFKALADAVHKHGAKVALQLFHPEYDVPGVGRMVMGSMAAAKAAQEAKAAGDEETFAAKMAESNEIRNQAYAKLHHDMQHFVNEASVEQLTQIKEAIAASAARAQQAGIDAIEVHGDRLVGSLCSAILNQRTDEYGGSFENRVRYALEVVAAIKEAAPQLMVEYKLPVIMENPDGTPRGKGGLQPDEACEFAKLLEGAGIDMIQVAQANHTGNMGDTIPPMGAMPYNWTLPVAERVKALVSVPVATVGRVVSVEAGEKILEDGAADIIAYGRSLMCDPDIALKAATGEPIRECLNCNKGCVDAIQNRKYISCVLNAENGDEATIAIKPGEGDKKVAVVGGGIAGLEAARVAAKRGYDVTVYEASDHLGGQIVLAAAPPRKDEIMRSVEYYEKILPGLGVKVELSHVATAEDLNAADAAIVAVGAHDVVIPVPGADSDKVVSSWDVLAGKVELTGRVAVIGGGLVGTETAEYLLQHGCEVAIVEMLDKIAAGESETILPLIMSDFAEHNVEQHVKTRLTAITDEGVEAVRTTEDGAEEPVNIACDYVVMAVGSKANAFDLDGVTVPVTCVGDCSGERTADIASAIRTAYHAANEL

[3] = target: T6, SGNH hydrolase-type esterase domain-containing protein (Phocaeicola dorei, UniProt B6W293); assay: (§2) The drug is tested on Bacteroides dorei strain: DSM17855 for biotransformation. The drug concentrations were measured before and after a 12-h incubation by liquid-chromatography-coupled mass spectrometry (LC–MS); assay type: ADME; set-up: dose 2 uM; conditions: 2 µM
T6 sequence (B6W293 whole entry): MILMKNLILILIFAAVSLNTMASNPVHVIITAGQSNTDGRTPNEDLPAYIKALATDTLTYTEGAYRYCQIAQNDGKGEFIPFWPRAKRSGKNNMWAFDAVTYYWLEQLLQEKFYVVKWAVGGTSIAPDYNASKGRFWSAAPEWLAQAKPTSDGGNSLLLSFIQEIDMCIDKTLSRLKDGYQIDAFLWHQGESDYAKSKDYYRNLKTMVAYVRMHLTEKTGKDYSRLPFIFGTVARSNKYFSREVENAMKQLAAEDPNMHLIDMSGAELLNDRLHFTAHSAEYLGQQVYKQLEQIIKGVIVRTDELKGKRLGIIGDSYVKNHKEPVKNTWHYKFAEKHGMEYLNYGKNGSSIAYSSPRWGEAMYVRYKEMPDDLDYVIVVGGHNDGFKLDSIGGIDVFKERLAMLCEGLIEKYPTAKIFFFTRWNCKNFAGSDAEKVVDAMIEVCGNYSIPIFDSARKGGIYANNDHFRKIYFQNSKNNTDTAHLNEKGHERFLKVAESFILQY

[4] = target: T7, Steroid 5-alpha reductase C-terminal domain-containing protein (Phocaeicola dorei, UniProt B6W0N3); assay: as §2; assay type: ADME; set-up: dose 2 uM; conditions: 2 µM
T7 sequence (B6W0N3 whole entry): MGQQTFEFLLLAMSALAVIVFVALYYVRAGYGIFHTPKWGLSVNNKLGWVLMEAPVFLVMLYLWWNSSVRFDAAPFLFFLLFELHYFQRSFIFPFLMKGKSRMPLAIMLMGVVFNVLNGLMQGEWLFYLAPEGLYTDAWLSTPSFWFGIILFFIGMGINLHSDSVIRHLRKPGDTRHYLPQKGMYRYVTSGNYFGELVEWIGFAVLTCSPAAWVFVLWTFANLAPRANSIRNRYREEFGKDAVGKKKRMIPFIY

| Structure (SMILES) | Bacterial Biotransformation [1] | Bacterial Biotransformation (Lipase) | Bacterial Biotransformation (Diguanylate cyclase) | Bacterial Biotransformation (Flavodoxin) | Bacterial Biotransformation (GDSL-like protein) | Bacterial Biotransformation [2] | Bacterial Biotransformation [3] | Bacterial Biotransformation [4] |
| --- | --- | --- | --- | --- | --- | --- | --- | --- |
| C[C@@H]1CC[C@H]2[C@@H](C)C(=O)O[C@@H]3O[C@@]4(C)CC[C@@H]1[C@]32OO4 [ARTEMISININ] | Compound metabolized | Compound NOT metabolized | Compound NOT metabolized | Compound NOT metabolized | Compound NOT metabolized | Compound NOT metabolized | Compound NOT metabolized | Compound NOT metabolized |
| CCN(CC)C(=O)/C(C#N)=C/c1cc(O)c(O)c([N+](=O)[O-])c1 [ENTACAPONE] | – | Compound NOT metabolized | Compound metabolized | Compound NOT metabolized | Compound NOT metabolized | Compound NOT metabolized | Compound NOT metabolized | Compound NOT metabolized |
| COc1ccnc(C[S+]([O-])c2nc3ccc(OC(F)F)cc3[nH]2)c1OC (stereo not drawn) [PANTOPRAZOLE] | – | Compound NOT metabolized | Compound NOT metabolized | Compound NOT metabolized | Compound NOT metabolized | Compound NOT metabolized | Compound metabolized | Compound NOT metabolized |
| Nc1ccc(/N=N/c2ccccc2)c(N)n1 [PHENAZOPYRIDINE] | – | Compound NOT metabolized | Compound NOT metabolized | Compound metabolized | Compound NOT metabolized | Compound NOT metabolized | Compound NOT metabolized | Compound NOT metabolized |
| CC(=O)SCC(Cc1ccccc1)C(=O)NCC(=O)OCc1ccccc1 (stereo not drawn) [RACECADOTRIL] | – | Compound metabolized | Compound NOT metabolized | Compound NOT metabolized | Compound NOT metabolized | Compound NOT metabolized | Compound NOT metabolized | Compound NOT metabolized |
| CC(=O)OCC(=O)NCCCOc1cccc(CN2CCCCC2)c1 [ROXATIDINE ACETATE] | – | Compound NOT metabolized | Compound NOT metabolized | Compound NOT metabolized | Compound NOT metabolized | Compound NOT metabolized | Compound NOT metabolized | Compound NOT metabolized |
